Assay results: US8198263B2, “Vitamin D derivatives active on the vitamin D nuclear receptor, preparation and uses thereof” (Centre National de la Recherche Scientifique, priority 2005, dated 2012)
Like-named read-outs stand apart in the source and are kept apart here.

How the values were obtained:
human VDR = target: T1, human VDR (Homo sapiens, UniProt P11473); assay: Transfection and transactivation assay (GAL4 DBD-VDR LBD, UAS-TATA-luciferase reporter, 293 EBNA cells); format: cell-based; conditions: for VDR agonist character: summary statement
T1 construct: an expression plasmid of GAL4 DBD-VDR LBD; expressed in transfected cells; host or cells: 293 EBNA cells
T1 sequence (P11473 127-423 limits assumed): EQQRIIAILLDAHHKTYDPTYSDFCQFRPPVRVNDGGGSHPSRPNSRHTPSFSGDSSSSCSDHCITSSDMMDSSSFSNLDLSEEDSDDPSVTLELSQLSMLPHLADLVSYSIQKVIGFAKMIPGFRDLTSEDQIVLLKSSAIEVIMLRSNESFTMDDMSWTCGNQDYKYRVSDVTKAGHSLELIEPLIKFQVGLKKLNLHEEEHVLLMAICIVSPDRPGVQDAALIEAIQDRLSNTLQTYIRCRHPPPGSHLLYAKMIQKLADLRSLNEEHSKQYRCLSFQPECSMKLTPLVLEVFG
From the text: FIG. 2: Transcriptional activation of VDR by 1α,25(OH)2D3, compound A and compound B. 293 EBNA cells were transiently transfected with a UAS-TATA-luciferase reporter plasmid and an expression plasmid of GAL4 DBD-VDR LBD and subsequently treated with 1α,25(OH)2D3, compound A (A), and compound B (B) at 10^−10 and 10^−9M. Luciferase activity for each sample was normalized to the β-galactosidase activity. Data is shown as fold induction of agonist induced luciferase activity divided by luciferase activity of vehicle.
The human VDR LBD was subcloned into the pG4M derived plasmid as a Gal fusion protein. Transient transfection experiments for the analysis of VDR activation were performed in 48 wells plates, using a standard calcium phosphate coprecipitation technique as described (11). 293 EBNA cells were seeded (6.0×10^4 cells per well) and incubated for 24 hours at 37° C. in medium containing Dulbecco medium (DMEM+1 g/L glucose), 10% FCS, gentamycine and 1 mg/ml G418 (geneticin). 293 EBNA cells were transiently transfected with 12.5 ng of Gal-4-VDR LBD plasmid, 10 ng of UAS-TATA-luciferase reporter plasmid, and 37.5 ng of PCH110 internal control recombinant expressing β-galactoside plasmid. After cells were incubated for 8 hours at 37° C., the medium was replaced and the compounds were added in optimized serial dilutions. After 20 hours at 37° C., cells were washed with PBS and harvested in Passiv lysis buffer (Promega). The cell lysates were assayed for lusiferase and β-galactosidase activity. Luciferase activity for each sample was normalized to β-galactosidase activity. Cells were treated with 1α, 25(OH)2D3, compound A, and compound B. All experiments were performed in duplicates.

[1] = parameters: species or system C57BL/6J mice; conditions: mouse, in vivo, po
Protocol: FIG. 3: Effects of 1α,25(OH)2D3 and new ligands (compounds A and B) on calcium levels in serum. (FIG. 3.1) Mice were fed either with vehicle (sesame oil), 1α,25(OH)2D3 2 μg/kg, 2 μg/kg compound A or 2 μg/kg compound B during 7 days. (FIG. 3.2) Mice were fed either with vehicle (Veh), 1α,25(OH)2D3 (D3), or compound A during 4 days. Data are presented as mean±SEM. Significant differences are marked as *p<0.05, ***p<0.01.
Male C57BL/6J mice, 6-7 weeks of age, were obtained from Charles River Laboratories France (l'Arbresle, France). All mice were maintained in a temperature-controlled (23° C.) facility with a 12 h light/dark cycle and were given free access to food and water. The mice were fed the EQ12310 diet from UAR (Villemoison sur Orge, France), which contained 16.8% protein, 73.5% carbohydrate and 4.8% fat. The different VDR agonists were dissolved in sesame oil and administered by oral gavage at the indicated doses. The mice were fasted 4 h before harvesting blood for subsequent Calcium measurements, which were performed as described (1).
Thereafter a detailed dose response (0.2, 0.5, 1, and 2 μg/kg) was performed with both 1α,25(OH)2D3, and compound A (FIG. 3.2). In this study compounds were gavaged during 4 consecutive days.

Compound	VDR agonist character (human VDR)	dose at which the effect on serum calcium levels became significant / caused hypercalcemia [1] [µg/kg]	dose at which the effect on serum calcium levels became significant / caused hypercalcemia ([1]; male, C57BL/6J, 4 days) [µg/kg]	effect on serum calcium levels compared with 1α,25(OH)2D3 [1]	transcriptional activities of human VDR induced, times more efficiently than 1α,25(OH)2D3 (human VDR; at 10^−10 M, 293 EBNA cells, luciferase normalized to β-galactosidase) [times]
C=C1/C(=C\C=C2/CCC[C@@]3(C)[C@H]2CC[C@@H]3[C@]2(C)C[C@@H](CC(C)(C)O)CO2)C[C@@H](O)C[C@@H]1O [compound B, (1R,3S,5Z)-5-((E)-2-((1S,3aS,7aS)-hexahydro-1-((2S,4R)-tetrahydro-4-(2-hydroxy-2-methylpropyl)-2-methylfuran-2-yl)-7a-methyl-1H-inden-4(7aH)-ylidene)ethylidene)-4-methylenecyclohexane-1,3-diol]	behaves like 1α,25(OH)2D3				
C=C1/C(=C\C=C2/CCC[C@]3(C)[C@@H]([C@H](C)CCCC(C)(C)O)CC[C@@H]23)C[C@@H](O)C[C@@H]1O [1α,25(OH)2D3, reference compound]		1			
C=C1/C(=C\C=C2/CCC[C@@]3(C)[C@H]2CC[C@@H]3[C@]2(C)C[C@H](CC(C)(C)O)CO2)C[C@@H](O)C[C@@H]1O [compound A, (1R,3S,5Z)-5-((E)-2-((1S,3aS,7aS)-hexahydro-1-((2S,4S)-tetrahydro-4-(2-hydroxy-2-methylpropyl)-2-methylfuran-2-yl)-7a-methyl-1H-inden-4(7aH)-ylidene)ethylidene)-4-methylenecyclohexane-1,3-diol]	superagonist activity		2	weaker effect on serum calcium levels	12
